Results on two compounds are retold here after US5965407A, “Anthracycline compound 0624” (Higeta Shoyu Co. Ltd., priority 1997, dated 1999).

Each structure is given as a SMILES string. In brackets after ≈: the same amount, converted by molar mass.

One may read the MIC as the smallest concentration in the dilution series that meets the test's criterion for growth inhibition. What is called IC50 is the concentration needed to halve the response being measured. Low readings indicate higher potency, high ones lower potency.

One data set has as its system M. flavescens ATCC14474. The data set is described as follows: Antimicrobial activity (MIC), M. flavescens. The class given is cell-based. The following applies: Mycolicibacterium flavescens; M. flavescens ATCC14474, Muller-Hinton broth, 24 hours, 37° C. How it is done:
(§1) The antimicrobial activity of compound 0624 was confirmed through the assaying of the minimum growth inhibitory concentration (MIC).
(§2) The MICs of compound 0624 against various bacteria were determined in a Muller-Hinton broth (BBL) containing 0.2% glucose, according to the standard defined by the Japan Chemotherapy Association (The Essentials of Antibiotics, the 4-th edition, Tokyo University Press, 1992).
(§3) The test bacteria were adjusted to 1×10^8 cfu/ml in the broth, and then used as test bacteria solutions.
(§4) The test samples (compounds 0624-A and 0624-B) were, separately, dissolved in methanol and were then serially diluted with the broth in a series of 2-fold dilution, starting from a concentration of 0.1 mg/ml. Each test bacteria solution (180 μl) and each test sample (20 μl) were divided in a 96-well microtiter plate, and cultured at 37° C. After 24 hours, the MIC was observed and calculated by the eye, and the resulting MIC was defined as MIC value.

In a further data set the test system is N. farcinica IFM0284. Kind of data set: Antimicrobial activity (MIC), N. farcinica. The following applies: Nocardia farcinica; N. farcinica IFM0284, Muller-Hinton broth, 24 hours, 37° C. The data set is classed as cell-based. On the procedure: as §1, §2, §3, §4
Data set [1] relates to Mycobacterium smegmatis ATCC607. The data set is described as follows: Antimicrobial activity (MIC), Mycobacterium smegmatis. The class given is cell-based. To be noted: Mycolicibacterium smegmatis; Mycobacterium smegmatis ATCC607, Muller-Hinton broth, 24 hours, 37° C. How it is done: as §1, §2, §3, §4
Data set [2] relates to Micrococcus luteus IFM2066. Kind of data set: Antimicrobial activity (MIC), Micrococcus luteus. To be noted: Micrococcus luteus IFM2066, Muller-Hinton broth, 24 hours, 37° C. The class given is cell-based. On the procedure:
as §1, §2, §3, §4

The next data set deals with N. nova IFM0290. Kind of data set: Antimicrobial activity (MIC), N. nova. To be noted: N. nova IFM0290, Muller-Hinton broth, 24 hours, 37° C. The data set is classed as cell-based. On the procedure:
as §1, §2, §3, §4

In a further data set the test system is Bacillus subtilis PC1189. The data set is described as follows: Antimicrobial activity (MIC), Bacillus subtilis. The data set is classed as cell-based. The following applies: Bacillus subtilis PC1189, Muller-Hinton broth, 24 hours, 37° C. On the procedure: as §1, §2, §3, §4
The next data set concerns KB cell line. The data set is described as follows: Growth inhibition of KB cells (MTT assay). The class given is cell-based. To be noted: Homo sapiens, 72 hours, 37° C. On the procedure:
(§5) Cell suspensions were prepared (at 5.6×10^6 cells/ml) by using RPMI 1640 medium for L1210 cell line, RPMI 1640 medium containing 20 μM 2-mercaptoethanol (all the media containing 10% bovine serum) for P388 cell line and an adriamycin resistant P388 cell line, Eagle's MEM medium for KB cell line, and α-MEM medium for CHO cell line.
(§6) Test samples (0624-A and 0624-B) were individually dissolved in methanol and serially diluted with the individual media in a series of 2-fold dilution starting from a concentration of 0.1 mg/ml. The cell suspensions (each of 180 μl) and each test sample (20 μl) were divided in a 96-well microtiter plate, and subjected to culturing in wet atmosphere of 5% CO2 -95% air at 37° C. 72 hours after, cell growth was determined by the calorimetric assay using 3-(4, 5-dimethyl-z-thiazolyl)-2,5-diphenyl-2H-tetrazolium bromide (MTT). More specifically, 20 μl each of 2 mg/ml MTT solution was added into each well, followed by culturing at 37° C. for 4 hours. Then, 50 μl of 50 % dimethylformamide solution containing 20% sodium dodecyl sulfate was added to each well, which was left to stand. The resulting formed violet formazan crystal was solubilized and subjected to determination of absorbance at 570 nm, by using a microplate reader (Immunoreader), which was used as the indicator of growth. […]
In general terms: Formazan colour is commonly taken as a measure of viable cells.

For data set [3], the system named is Nocardia transvalensis IFM0333. The data set is described as follows: Antimicrobial activity (MIC), Nocardia transvalensis. To be noted: Nocardia transvalensis IFM0333, Muller-Hinton broth, 24 hours, 37° C. The data set is classed as cell-based. How it is done:
as §1, §2, §3, §4

Data set [4] relates to cell lines L1210, P388, adriamycin resistant P388, KB and CHO. Kind of data set: Growth inhibition of the tumor cell line panel (MTT assay), summary in words. The data set is classed as cell-based. How it is done: as §5, §6
The next data set has as its system CHO cell line. The data set is described as follows: Growth inhibition of CHO cells (MTT assay). The class given is cell-based. The following applies: Cricetulus griseus, 72 hours, 37° C. How it is done: as §5, §6
Another data set relates to L1210 cell line. Kind of data set: Growth inhibition of L1210 cells (MTT assay). To be noted: Mus musculus, L1210, 72 hours, 37° C. The class given is cell-based. How it is done: as §5, §6
Another data set in a line: Solubility. The class given is physicochemical.
Data set [5] has as its system N. otitidiscaviarum IFM0239. The data set is described as follows: Antimicrobial activity (MIC), N. otitidiscaviarum. The data set is classed as cell-based. To be noted: N. otitidiscaviarum IFM0239, Muller-Hinton broth, 24 hours, 37° C. How it is done: as §1, §2, §3, §4
Another data set relates to gram-positive bacteria. The data set is described as follows: Antimicrobial activity, summary in words. The class given is cell-based. The following applies: gram-positive bacteria of Table 6. On the procedure: as §1, §2, §3, §4
For data set [6], the system named is Adriamycin resistant P388 cell line. Kind of data set: Growth inhibition of adriamycin resistant P388 cells (MTT assay). To be noted: Mus musculus, Adriamycin resistant P388, 72 hours, 37° C. The data set is classed as cell-based. On the procedure: as §5, §6
For a further data set, the system named is M. phlei ATCC11758. Kind of data set: Antimicrobial activity (MIC), M. phlei. The following applies: Mycolicibacterium phlei; M. phlei ATCC11758, Muller-Hinton broth, 24 hours, 37° C. The data set is classed as cell-based. How it is done: as §1, §2, §3, §4
For another data set, the system named is N. asteroides IFM0319. Kind of data set: Antimicrobial activity (MIC), N. asteroides. The data set is classed as cell-based. The following applies: Nocardia asteroides; N. asteroides IFM0319, Muller-Hinton broth, 24 hours, 37° C. On the procedure: as §1, §2, §3, §4
A further data set has as its system P388 cell line. Kind of data set: Growth inhibition of P388 cells (MTT assay). The class given is cell-based. To be noted: Mus musculus, P388, 72 hours, 37° C. How it is done: as §5, §6
Data set [7] concerns Staphylococcus aureus 209P. Kind of data set: Antimicrobial activity (MIC), Staphylococcus aureus. The class given is cell-based. To be noted: Muller-Hinton broth, 24 hours, 37° C. How it is done:
as §1, §2, §3, §4

For the next data set, the system named is N. brasiliensis IFM0236. Kind of data set: Antimicrobial activity (MIC), N. brasiliensis. The class given is cell-based. The following applies: N. brasiliensis IFM0236, Muller-Hinton broth, 24 hours, 37° C. How it is done:
as §1, §2, §3, §4

Where [8] appears, read: in chloroform, ether and hexane.
Where [9] appears, read: in water, methanol, ethanol, DMSO and ethyl acetate.

As to `COc1ccc(O)c2c1C(=O)c1cc3c(c(O)c1C2=O)C(OC1CC(C)(N(C)C)C(OC(C)=O)C(C)O1)C(OC)C(C)(O)C3=O` (stereo not drawn) [Compound 0624-B], the MIC against M. flavescens ATCC14474 was determined as 12.5 µg/mL (≈ 19.9 µM); in the data set on N. farcinica IFM0284, 12.5 µg/mL (≈ 19.9 µM); in data set [1] it was 3.13 µg/mL (≈ 4.99 µM); in data set [2], 12.5 µg/mL (≈ 19.9 µM); against N. nova IFM0290, 1.56 µg/mL (≈ 2.49 µM); against Bacillus subtilis PC1189, 3.13 µg/mL (≈ 4.99 µM). The minimum inhibitory concentration (MIC) in data set [3] is 6.25 µg/mL (≈ 9.96 µM); in [5], above 100 µg/mL; with M. phlei ATCC11758, 3.13 µg/mL (≈ 4.99 µM); against N. asteroides IFM0319 it was 3.13 µg/mL (≈ 4.99 µM); in data set [7], 100 µg/mL (≈ 159 µM); with N. brasiliensis IFM0236 it was above 100 µg/mL. Besides, the IC50 in the data set on KB cell line worked out at 1.32 µg/mL (≈ 2.1 µM); in the data set on CHO cell line, 18.6 µg/mL (≈ 29.6 µM); in the data set with L1210 cell line it was 0.18 µg/mL (≈ 0.287 µM); in [6] it was 1.05 µg/mL (≈ 1.67 µM); with P388 cell line it was 0.59 µg/mL (≈ 0.94 µM). In [4], the “growth inhibitory activities against the cell lines” value is listed as “have the growth inhibitory activities”. Besides, the Solubility entry was “Insoluble” in the data set “Solubility” (setting [8]) and “Soluble” in “Solubility” (setting [9]). Also, the “antimicrobial activity against gram-positive bacteria” value in the data set on gram-positive bacteria was “wide spectrum of antimicrobial activity”.

For the compound `COc1ccc(O)c2c1C(=O)c1cc3c(c(O)c1C2=O)C(OC1CC(C)(N(C)C)C(O)C(C)O1)C(OC)C(C)(O)C3=O` (stereo not drawn) [Compound 0624-A], the minimum inhibitory concentration (MIC) with M. flavescens ATCC14474 turned out to be 3.13 µg/mL (≈ 5.34 µM); in the data set on N. farcinica IFM0284, 3.13 µg/mL (≈ 5.34 µM); in [1], 1.56 µg/mL (≈ 2.66 µM); in data set [2] it was 1.56 µg/mL (≈ 2.66 µM); against N. nova IFM0290, 0.78 µg/mL (≈ 1.33 µM); against Bacillus subtilis PC1189 it was 6.25 µg/mL (≈ 10.7 µM). Besides, the MIC in data set [3] is 3.13 µg/mL (≈ 5.34 µM); in data set [5], 1.56 µg/mL (≈ 2.66 µM); in the data set on M. phlei ATCC11758 it was 0.78 µg/mL (≈ 1.33 µM); in the data set with N. asteroides IFM0319, 1.56 µg/mL (≈ 2.66 µM); in data set [7], 3.13 µg/mL (≈ 5.34 µM); with N. brasiliensis IFM0236, 6.25 µg/mL (≈ 10.7 µM). The half-inhibitory concentration (IC50) stood at 1.06 µg/mL (≈ 1.81 µM) with KB cell line; 12.3 µg/mL (≈ 21 µM) in the data set with CHO cell line; 0.15 µg/mL (≈ 0.256 µM) with L1210 cell line; 0.97 µg/mL (≈ 1.66 µM) in data set [6]; 0.47 µg/mL (≈ 0.803 µM) in the data set on P388 cell line. Moreover, the “growth inhibitory activities against the cell lines” value in data set [4] is reported as “have the growth inhibitory activities”. Besides, the Solubility entry in “Solubility” (setting [8]) is recorded as “Insoluble”; in “Solubility” (setting [9]), “Soluble”. For the same compound, the “antimicrobial activity against gram-positive bacteria” value in the data set on gram-positive bacteria was “wide spectrum of antimicrobial activity”.
